Laboratory results taken from patent US6894075B2, “4′-demethyl-4′-O-substituted-1-deoxypodophyllotoxin derivative and geometric isomer thereof, process for the preparation thereof and anti-cancer composition comprising the same” (priority 2000, dated 2005).
Where two headings read alike, the source gives them in different places.

Legend:
[1] = test system: A549 cell; assay: Cytotoxicity test (SRB method) for A549 cells; assay type: cell-based, human; settings: for cytotoxicity compared with DPT: A549, in words; for ED50(mg/mL) for A549: Table 2
Text: (§1) Human lung carcinomas A549 and […] were used for determining cytotoxicity of the compounds of the present invention according to the Sulfrhodamine-B (SRB) method which was developed by NCI in 1989 in order to determine in vitro anticancer activity of drugs.
(§2) Cells to be used in the experiment were separated from a surface using 0.5% Trypsin-EDTA solution and suspended in a density of 5×10^4 cell/ml therein. The cell suspension was introduced into a 96-well plate in an amount of 180/well and incubated for 24 hours in a 5% CO2 incubator of 37° C. Samples were dissolved in dimethylsulfoxide and then diluted by water distilled in advance for three times just before the experiment. Forty-one (41) samples were prepared into 4 types of final concentrations, i.e., 0.1, 0.03, 0.01 and 0.003 mg per ml of the medium. The diluted sample solutions were added to the 96-well plate in the amount of 20 μl/well and incubated for 48 hours in a CO2 incubator of 37° C. At the time of adding the samples, Tz (Time zero) plate was taken. The medium was removed from the Tz plate and each of the plates after incubation were completed. Ten (10)% […] (TCA) was added in the amount of […], and allowed to stand for 1 hour at 4° C. to fix the cells on the bottom surface of the plate. After the cells were fixed, the plate was washed five to six times with water to completely remove the remaining TCA solution and then dried at room temperature to completely remove the moisture. To the fully dried plate was introduced a dye solution in the amount of […] in which 0.4% SRB was dissolved in 1% acetic acid solution. […] After the dyeing process, the plate was dried again at room temperature. 100 ml of 10 mM Tris solution was added thereto in order to dissolve the dye, and then O.D. (optical density) was determined by microplate reader at 520 nm.
(§3) ED50 values for cancer cells were calculated as follows. The amount of SRB protein was analyzed at the time when incubation started by the addition of the sample. This amount was named time zero (Tz). The O.D. value obtained from a group which was not treated by the sample was named Control group (C) and the O.D. value obtained from a group which was treated by the sample was named Test group (T).
(§4) The degree of cytotoxicity of the compounds was calculated from Tz, C and T values according to the following equation.
(§5) That is, in the case of Tz≧T, the degree was calculated by
(§6) (T−Tz)/(C−Tz)×100(%), and
(§7) • in the case of Tz<T, the degree was calculated by […].
(§8) From the values thus obtained, ED50 value which is defined as the concentration at which growth of the cancer cell is inhibited by 50% was calculated using the regression function of Excel program.

[2] = test system: SK-MEL-2 cell; assay: Cytotoxicity test (SRB method) for SK-MEL-2 cells; assay type: cell-based, human; settings: SK-MEL-2, SRB, 48 hours incubation
Text: as §1, §2, §3, §4, §5, §6, §7, §8

[3] = A549 human lung cancer cell, SRB, 48 hours incubation, read-out: ED50(nM) for A549
[4] = A549, SRB, Table 2, unit printed in the cell, read-out: ED50 for A549, cells marked

Row | SMILES | EC50 [1, 3] [nM] | ED50(mg/mL) for SK-MEL-2 [2] [mg/mL] | ED50(mg/mL) for A549 ([1]; A549, SRB, 48 hours incubation) [mg/mL] | other results
1 | COc1cc(C2c3cc4c(cc3CC3COC(=O)C32)OCO4)cc(OC)c1OC(=O)[C@H](C)N (some centres unmarked) [Compound 1a-1, 4′-demethyl-4′-O-alanoyl-1-deoxypodophyllotoxin] | 21.9 |  |  | cytotoxicity compared with DPT [1]: stronger cytotoxicity than DPT
2 | COc1cc(C2c3cc4c(cc3CC3COC(=O)C32)OCO4)cc(OC)c1OC(=O)C(N)C(C)C (centres unmarked) [Compound 1a-3, 4′-demethyl-4′-O-valinoyl-1-deoxypodophyllotoxin] | 88.2 |  |  | 
3 | COc1cc(C2c3cc4c(cc3CC3COC(=O)C32)OCO4)cc(OC)c1OC(=O)CN (centres unmarked) [Compound 1a-4, 4′-demethyl-4′-O-glycinoyl-1-deoxypodophyllotoxin] | 102 |  |  | 
4 | COc1cc(C2c3cc4c(cc3CC3COC(=O)C32)OCO4)cc(OC)c1OC(=O)C(N)CO (centres unmarked) [Compound 1a-5, 4′-demethyl-4′-O-serinoyl-1-deoxypodophyllotoxin] | 55 |  |  | cytotoxicity compared with DPT [1]: stronger cytotoxicity than DPT
5 | COc1cc(C2c3cc4c(cc3CC3COC(=O)C32)OCO4)cc(OC)c1OC(=O)C(N)Cc1ccccc1 (centres unmarked) [Compound 1a-7, 4′-demethyl-4′-O-phenylalanoyl-1-deoxypodophyllotoxin] | 86.6 |  |  | 
6 | COc1cc(C2c3cc4c(cc3CC3COC(=O)C32)OCO4)cc(OC)c1OC(=O)[C@@H](N)Cc1ccc(O)cc1 (some centres unmarked) [Compound 1a-9, 4′-demethyl-4′-O-tyrosinoyl-1-deoxypodophyllotoxin] | 104 |  |  | 
7 | COc1cc(C2c3cc4c(cc3CC3COC(=O)C32)OCO4)cc(OC)c1OC(=O)Cc1ccc(N)cc1 (centres unmarked) [Compound 1a-16, 4′-demethyl-4′-O-(4-aminophenylacetyl)-1-deoxypodophyllotoxin] | 114 |  |  | 
8 | CCNC(=O)Oc1c(OC)cc(C2c3cc4c(cc3CC3COC(=O)C32)OCO4)cc1OC (centres unmarked) [Compound 1b-1, 4′-demethyl-4′-O-ethylcarbamoyl-1-deoxypodophyllotoxin] | 132 |  |  | 
9 | COc1cc(C2c3cc4c(cc3CC3COC(=O)C32)OCO4)cc(OC)c1OC(=O)NC(=O)CCl (centres unmarked) [Compound 1b-6, 4′-demethyl-4′-O-chloroacetylcarbamoyl-1-deoxypodophyllotoxin] | 80.3 |  |  | 
10 | C=CCNC(=O)Oc1c(OC)cc(C2c3cc4c(cc3CC3COC(=O)C32)OCO4)cc1OC (centres unmarked) [Compound 1b-7, 4′-demethyl-4′-O-allylcarbamoyl-1-deoxypodophyllotoxin] | 90.5 |  |  | 
11 | COc1cc(C2c3cc4c(cc3CC3COC(=O)C32)OCO4)cc(OC)c1OC(=O)Nc1ccccc1 (centres unmarked) [Compound 1b-8, 4′-demethyl-4′-O-phenylcarbamoyl-1-deoxypodophyllotoxin] | 177 |  |  | 
12 | COc1cc(C2c3cc4c(cc3CC3COC(=O)C32)OCO4)cc(OC)c1OC(=O)Nc1ccc(F)cc1 (centres unmarked) [Compound 1b-9, 4′-demethyl-4′-O-(4-fluorophenylcarbamoyl)-1-deoxypodophyllo-toxin] | 86.3 |  |  | 
13 | COc1ccc(NC(=O)Oc2c(OC)cc(C3c4cc5c(cc4CC4COC(=O)C43)OCO5)cc2OC)cc1 (centres unmarked) [Compound 1b-10, 4′-demethyl-4′-O-(4-methoxyphenylcarbamoyl)-1-deoxypodophyllotoxin] | 95.6 |  |  | 
14 | COc1cc(C2c3cc4c(cc3CC3COC(=O)C32)OCO4)cc(OC)c1OC(=O)Nc1ccc(C)cc1 (centres unmarked) [Compound 1b-11, 4′-demethyl-4′-O-(4-methylphenylcarbamoyl)-1-deoxypodophyllotoxin] | 99.3 |  |  | 
15 | COc1cc(C2c3cc4c(cc3CC3COC(=O)C32)OCO4)cc(OC)c1OC(=O)Nc1ccc(SC)cc1 (centres unmarked) [Compound 1b-12, 4′-demethyl-4′-O-(4-methylthiophenylcarbamoyl)-1-deoxypodophyllotoxin] | 106 |  |  | 
16 | COc1ccccc1NC(=O)Oc1c(OC)cc(C2c3cc4c(cc3CC3COC(=O)C32)OCO4)cc1OC (centres unmarked) [Compound 1b-13, 4′-demethyl-4′-O-(2-methoxyphenylcarbamoyl)-1-deoxypodophyllotoxin] | 66.2 |  |  | cytotoxicity compared with DPT [1]: stronger cytotoxicity than DPT
17 | COc1cc(C2c3cc4c(cc3CC3COC(=O)C32)OCO4)cc(OC)c1OC(=O)NCc1ccccc1 (centres unmarked) [Compound 1b-14, 4′-demethyl-4′-O-benzylcarbamoyl-1-deoxypodophyllotoxin] | 72 |  |  | cytotoxicity compared with DPT [1]: stronger cytotoxicity than DPT
18 | COc1cc(C2c3cc4c(cc3CC3COC(=O)C32)OCO4)cc(OC)c1OC(=O)NC(=O)c1ccccc1 (centres unmarked) [Compound 1b-15, 4′-demethyl-4′-O-benzoylcarbamoyl-1-deoxypodophyllotoxin] | 77 |  |  | 
19 | COc1cc(C2c3cc4c(cc3CC3COC(=O)C32)OCO4)cc(OC)c1OC(=O)NS(=O)(=O)c1ccccc1 (centres unmarked) [Compound 1b-16, 4′-demethyl-4′-O-benzenesulfonylcarbamoyl-1-deoxypodophyllo-toxin] | 50.6 |  |  | cytotoxicity compared with DPT [1]: stronger cytotoxicity than DPT
20 | COc1cc(C=CC(=O)Oc2c(OC)cc(C3c4cc5c(cc4CC4COC(=O)C43)OCO5)cc2OC)cc(OC)c1OC (centres unmarked) [Compound 1c-1, 4′-demethyl-4′-O-(3,4,5-trimethoxyphenylcinnamoyl)-1-deoxypodophyllotoxin] |  |  |  | EC50 [1, 4]: 108 nM
21 | COc1cc(C2c3cc4c(cc3CC3COC(=O)C32)OCO4)cc(OC)c1OC(=O)Cc1ccc(N(C)C)cc1 (centres unmarked) [Compound 1c-2, 4′-demethyl-4′-O-(4-dimethylaminophenylacetyl)-1-deoxypodophyllotoxin] |  |  |  | EC50 [1, 4]: 106 nM
22 | COc1cc(C2c3cc4c(cc3CC3COC(=O)C32)OCO4)cc(OC)c1OC(C)=O (centres unmarked) [Compound 1c-3, 4′-demethyl-4′-O-acetyl-1-deoxypodophyllotoxin] |  | 0.006 | 0.003 | 
23 | CCC(=O)Oc1c(OC)cc(C2c3cc4c(cc3CC3COC(=O)C32)OCO4)cc1OC (centres unmarked) [Compound 1c-4, 4′-demethyl-4′-O-propanoyl-1-deoxypodophyllotoxin] |  | 0.010 | 0.004 | 
24 | CCCC(=O)Oc1c(OC)cc(C2c3cc4c(cc3CC3COC(=O)C32)OCO4)cc1OC (centres unmarked) [Compound 1c-5, 4′-demethyl-4′-O-butanoyl-1-deoxypodophyllotoxin] |  | 0.017 | 0.005 | 
25 | COc1cc(C2c3cc4c(cc3CC3COC(=O)C32)OCO4)cc(OC)c1OC(=O)CC(C)C (centres unmarked) [Compound 1c-6, 4′-demethyl-4′-O-(3′-methylbutanoyl)-1-deoxypodophyllotoxin] |  | 0.089 | 0.006 | 
26 | CCCCCCC(=O)Oc1c(OC)cc(C2c3cc4c(cc3CC3COC(=O)C32)OCO4)cc1OC (centres unmarked) [Compound 1c-7, 4′-demethyl-4′-O-heptanoyl-1-deoxypodophyllotoxin] |  | 0.078 | 0.013 | 
27 | CCCCCCCC(=O)Oc1c(OC)cc(C2c3cc4c(cc3CC3COC(=O)C32)OCO4)cc1OC (centres unmarked) [Compound 1c-8, 4′-demethyl-4′-O-octanoyl-1-deoxypodophyllotoxin] |  | 0.030 | 0.009 | 
28 | CCCCCCCCCC(=O)Oc1c(OC)cc(C2c3cc4c(cc3CC3COC(=O)C32)OCO4)cc1OC (centres unmarked) [Compound 1c-9, 4′-demethyl-4′-O-decanoyl-1-deoxypodophyllotoxin] |  | 0.004 | 0.027 | 
29 | COc1cc(C2c3cc4c(cc3CC3COC(=O)C32)OCO4)cc(OC)c1OC(=O)c1ccccc1 (centres unmarked) [Compound 1c-10, 4′-demethyl-4′-O-benzoyl-1-deoxypodophyllotoxin] |  | 0.066 | 0.095 | 
30 | CCCCCCCCCCCC(=O)Oc1c(OC)cc(C2c3cc4c(cc3CC3COC(=O)C32)OCO4)cc1OC (centres unmarked) [Compound 1c-11, 4′-demethyl-4′-O-dodecanoyl-1-deoxypodophyllotoxin] |  | 0.025 | 0.030 | 
